Test results taken from patent US20260364184A1, “COMPOUND BASED ON OXOISOINDOLINYL-SUBSTITUTED TETRAHYDROPYRIMIDINE-DIONE AND USE THEREOF” (GLUETACS THERAPEUTICS (SHANGHAI) CO., LTD., priority 2023, published 2026).

Molecular target: T1, human Cereblon WT GST-tagged protein (CRBN) (Homo sapiens, UniProt Q96SW2)
T1 construct: purchased CISBIO 64BDCRBNPEH
Experiment: CRBN binding by HTRF (Cereblon binding kit)
Conditions: for inhibition at 0.5 µM: read-out: Inhibition Rate at 0.5 μM (%); for inhibition at 2 µM: read-out: Inhibition Rate at 2 μM (%)
Experimental: The CEREBLON BINDING kits (specification: 10,000 tests; product number: Catalog #64BDCRBNPEH; CISBIO company) was used to determine the CRBN binding ability of the compounds to be tested through a HTRF method (homogeneous time-resolved fluorescence). The specific methods are as follows: • 1. According to the instructions of the CEREBLON BINDING KITS, serial dilutions were performed for the test compounds of the present disclosure (including the compounds in Table 1, Table 2, and Examples 1-468) and for lenalidomide. Specifically, diluent #9 (1×) solution was used as the diluent, and multiple concentration gradients were set. The dilution operation can be performed according to one of the following two methods: • (1) The first dilution method: The test compounds of the present disclosure (including the compounds in Table 1, Table 2, and Examples 1-468) were subjected to 5-fold serial dilutions starting from a highest concentration of 40 μM, resulting in a total of 7 concentrations from high to low (40, 8, 1.6, 0.32, 0.064, 0.0128, 0.00256 μM). Subsequently, the diluted test compounds and corresponding detection reagents were added to each well of a 96-well plate, resulting in final test compound concentrations of 10, 2, 0.4, 0.08, 0.016, 0.0032, and 0.00064 μM, respectively. • (2) As an alternative, a second dilution method can be used: The test compounds of the present disclosure (including the compounds in Table 1, Table 2, and Examples 1-468) were subjected to 4-fold gradient dilutions starting from a highest concentration of 8 μM, resulting in 2 concentrations (8 μM, 2 μM). Into the 96-well plate, the diluted test compounds and corresponding detection reagents were added, resulting in final test compound concentrations of 2 μM and 0.5 μM, respectively. The experimental procedure is described below using the diluted 8 μM test compound and lenalidomide solutions as examples. • 2. 2.5 μL of the above 8 μM of the tested compounds and lenalidomide solution, as well as the same volume of diluent #9 (1×) solution (solvent control group, Std0) were added to each well of a 96-well plate, respectively. Then, 2.5 μL of human Cereblon WT GST-tagged protein solution was added to each well. Finally, 5 μL of the thoroughly mixed Thalidomide-Re reagent and GST Eu antibody working solution were added to each of the aforementioned wells. The final concentration of the tested compounds and lenalidomide in each well was 2 μM. • 3. The blank control wells were sequentially added with 2.5 μL of diluent #9 (1×) solution, 2.5 μL of PROTAC binding buffer, and 5 μL of thoroughly mixed Thalidomide-Re reagent and GST Eu antibody working solution. • 4. After sealing and incubating the solutions in the aforementioned wells at room temperature for 3 hours, the absorbance values at emission wavelengths of 620 nm and 665 nm were detected by the HTRF method using a Spark microplate reader (V3.1 SP1).
The corresponding CRBN binding inhibition rate was calculated using the following method:
Rcompound=OD 665 nmcompound/OD 620 nmcompound−OD 665 nmcontrol/OD 620 nmcontrol
RStd0=OD 665 nmStd0/OD 620 nmStd0−OD 665 nmcontrol/OD 620 nmcontrol inhibition rate (%)=(1−Rcompound/RStd0)*100
Note: OD 665 nmcompound is the absorbance value of each well of the compounds to be tested of the present disclosure at an emission wavelength of 665 nm. OD 620 nmcompound is the absorbance value of each well of the compounds to be tested of the present disclosure at an emission wavelength of 620 nm. OD 665 nmcontrol is the absorbance value of the blank control well at an emission wavelength of 665 nm. OD 620 nmcontrol is the absorbance value of the blank control well at an emission wavelength of 620 nm. OD 665 nmStd0 is the absorbance value of the solvent control well at an emission wavelength of 665 nm. OD 620 nmStd0 is the absorbance value of the solvent control well at an emission wavelength of 620 nm.

T1 sequence (Q96SW2 whole entry): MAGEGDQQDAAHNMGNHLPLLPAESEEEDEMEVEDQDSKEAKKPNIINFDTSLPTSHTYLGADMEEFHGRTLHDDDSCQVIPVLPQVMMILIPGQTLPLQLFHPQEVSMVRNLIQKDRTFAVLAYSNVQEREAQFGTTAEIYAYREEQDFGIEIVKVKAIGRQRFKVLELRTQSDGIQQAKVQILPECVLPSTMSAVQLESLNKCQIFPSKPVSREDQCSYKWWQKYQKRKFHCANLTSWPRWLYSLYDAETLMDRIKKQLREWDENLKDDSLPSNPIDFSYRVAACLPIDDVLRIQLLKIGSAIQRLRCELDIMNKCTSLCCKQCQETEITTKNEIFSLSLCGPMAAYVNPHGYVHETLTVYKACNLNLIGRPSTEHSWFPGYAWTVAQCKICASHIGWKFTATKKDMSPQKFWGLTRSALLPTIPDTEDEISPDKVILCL

| Structure (SMILES) | inhibition at 0.5 µM (0.5 μM) | inhibition at 2 µM (2 μM) | Inhibition Rate at 0.5 μM (%) (0.5 μM) | Inhibition Rate at 2 μM (%) (2 μM) |
| --- | --- | --- | --- | --- |
| Cc1cc(-c2ccc3c4cnccc4n(C)c3c2)cnc1N1CCN(Cc2ccc3c(c2)CN(N2CCC(=O)NC2=O)C3=O)CC1 [GT-08540, 1-(5-((4-(3-methyl-5-(5-methyl-5H-pyrido[4,3-b]indol-7-yl)pyridin-2-yl)piperazin-1-yl)methyl)-1-oxoisoindolin-2-yl)dihydropyrimidine-2,4 (1H,3H)-dione] | 10 to 20% | 53 to 60% | – | – |
| CN(Cc1ccc(-c2[nH]c3cc(F)cc4c3c2CCNC4=O)cc1)Cc1ccc2c(c1)CN(N1CCC(=O)NC1=O)C2=O [GT-08403, 1-(5-(((4-(8-fluoro-1-oxo-2,3,4,6-tetrahydro-1H-azepino[5,4,3-cd]indol-5-yl)benzyl)(methyl)amino)methyl)-1-oxoisoindolin-2-yl)dihydropyrimidine-2,4(1H,3H)-dione] | 20 to 30% | 53 to 60% | – | – |
| O=C1CCN(N2Cc3cc(CN4CCN(c5ccn6c(n5)nc5ccccc56)CC4)ccc3C2=O)C(=O)N1 [GT-08565, 1-(5-((4-(benzo[4,5]imidazo[1,2-a]pyrimidin-2-yl)piperazin-1-yl)methyl)-1-oxoisoindolin-2-yl)dihydropyrimidine-2,4 (1H,3H)-dione] | 10 to 20% | 60 to 80% | – | – |

Second part, the compound after the results:

| inhibition at 0.5 µM (0.5 μM) | inhibition at 2 µM (2 μM) | Inhibition Rate at 0.5 μM (%) (0.5 μM) | Inhibition Rate at 2 μM (%) (2 μM) | Structure (SMILES) |
| --- | --- | --- | --- | --- |
| 10 to 20% | 53 to 60% | – | – | Cn1ncc(Cl)c1-c1cc(C(=O)N[C@H](CNCC2CCN(c3cccc4c3C(=O)N(N3CCC(=O)NC3=O)C4=O)CC2)Cc2cccc(F)c2)sc1Cl [GT-08587, (S)-5-chloro-4-(4-chloro-1-methyl-1H-pyrazol-5-yl)-N-(1-(((1-(2-(2,4-dioxotetrahydropyrimidin-1(2H)-yl)-1,3-dioxoisoindolin-4-yl)piperidin-4-yl)methyl)amino)-3-(3-fluorophenyl)propan-2-yl)thiophene-2-carboxamide] |
| – | – | a3 (30% < a3 ≤ 40%) | a5 (53% < a5 ≤ 60%) | CN(C)C(=O)c1cc2cnc(Nc3ccc(N4CCC(CN5CC6CC(C5)N6c5ccc6c(c5)C(=O)N(N5CCC(=O)NC5=O)C6=O)CC4)cn3)nc2n1C1CCCC1 [GT-05201, 7-cyclopentyl-2-((5-(4-((6-(2-(2,4-dioxotetrahydropyrimidin-1(2H)-yl)-1,3-dioxoisoindolin-5-yl)-3,6-diazabicyclo[3.1.1]heptan-3-yl)methyl)piperidin-1-yl)pyridin-2-yl)amino)-N,N-dimethyl-7H-pyrrolo[2,3-d]pyrimidine-6-carboxamide] |
| 30 to 40% | 60 to 80% | – | – | Cn1c2ccncc2c2ccc(-c3cnc(N4CCN(Cc5ccc6c(c5)CN(N5CCC(=O)NC5=O)C6=O)CC4)c(Cl)c3)cc21 [GT-08541, 1-(5-((4-(3-chloro-5-(5-methyl-5H-pyrido[4,3-b]indol-7-yl)pyridin-2-yl)piperazin-1-yl)methyl)-1-oxoisoindolin-2-yl)dihydropyrimidine-2,4 (1H,3H)-dione] |
| 20 to 30% | 53 to 60% | – | – | O=C1CCN(N2C(=O)c3ccc(N4CC5CCC4CN5CC4CCN(c5ccn6c(n5)nc5ccccc56)CC4)cc3C2=O)C(=O)N1 (centres unmarked) [GT-08828, 5-(5-((1-(benzo[4,5]imidazo[1,2-a]pyrimidin-2-yl)piperidin-4-yl)methyl)-2,5-diazabicyclo[2.2.2]octan-2-yl)-2-(2,4-dioxotetrahydropyrimidin-1(2H)-yl)isoindoline-1,3-dione] |
